Reference: publication PMC11719397, “Monophthalates of betulinic acid and related pentacyclic triterpenes inhibit efficiently the SOS-mediated nucleotide exchange and impact PI3K/AKT signaling in oncogenic K-RAS4B proteins” (RSC Advances, 2025)
≈ marks a conversion by molar mass, not a printed value. Where two headings read alike, the source gives them in different places.

Experiments:
K-RAS4B^G12D [1] = biological target: T1, K-RAS4B^G12D (Homo sapiens, UniProt P01116, G12D); assay: biochemical; conditions: for IC50: K-RAS4B GDP/GTP exchange, eight data points, at least three determinations
K-RAS4B wild-type = K-RAS4B wild-type (Homo sapiens, UniProt P01116); assay: Nucleotide exchange assay (SOS1-mediated GDP/GTP exchange, GDP-Glo), K-RAS4B wild-type; format: biochemical; conditions: K-RAS4B GDP/GTP exchange; eight data points, at least three determinations; (*) single determination
K-RAS4B G12V = K-RAS4B G12V (Homo sapiens, UniProt P01116, G12V); assay: Nucleotide exchange assay (SOS1-mediated GDP/GTP exchange, GDP-Glo), K-RAS4B G12V; format: biochemical; conditions: eight data points, at least three determinations, (*) single determination
[2] = biological target: (GTP)K-RAS4B^wt:SOS1 complex (Homo sapiens, UniProt P01116+Q07889); assay: HTRF K-RAS^wt:SOS protein-protein interaction assay
Procedure: The interaction of (GTP)K-RAS4B^wt and SOS was measured with a HTRF assay using an SOS-specific antibody labeled with terbium cryptate as HTRF (homogeneous time-resolved fluorescence) donor and a K-RAS4B^wt specific antibody labeled with an HTRF acceptor (XL665).[52]
To test the compounds effect on the interaction of K-RAS and SOS1 proteins a commercial assay from Revvity (product code 64[sequence]) was used. The K-RAS WT/SOS1 PPI assay includes tagged human recombinant partners (K-RAS WT and SOS1) and labelled anti-tag reagents for HTRF detection. Without an inhibitor, K-RAS WT loaded with GTP binds to SOS1, and the binding of each detection reagent to its tagged target generates an HTRF signal. In the presence of K-RAS WT/SOS1 inhibitors or GTP competitors, the HTRF signal decreases.
After an incubation step for 10 min at room temperature 3 μL Tag1-KRAS protein was added followed by 7.5 μL detection mix containing anti-Tag2 antibody labeled with Terbium cryptate and anti-Tag1 antibody labeled with XL665. […] IC50 values were determined from the sigmoidal dose response curves with the Scigilian Analyze software (Scigilian, Monteral, Canada).

K-RAS4B^G12D [3] = biological target: T1, K-RAS4B^G12D; assay: cell-based; set-up: a fusion protein of LgBiT and full-length RAS; a fusion protein of SmBiT(q) and full-length RAS in cells; expressed in transfected cells; host or cells: HEK239T (so in the source); conditions: live cells; displacement of BI2852 from the K-Ras4B SI/II binding-site; read-out: K-RAS4B^G12D NanoBRET TE KD
From the text: To obtain further information on the mode of action, selected GDP/GTP exchange inhibitors were studied in additional assays (Table 3). A target engagement assay, which is based on bioluminescence resonance energy transfer (BRET), was used to measure target engagement at protein complexes in live cells (Fig. 5a). The BRET effect results from an energy transfer between the target luciferase fusion protein and a cell-permeable fluorescent tracer in intact cells.
Fig. 5 Schematic illustrations of the RAS cellular target engagement and RAS:SOS protein–protein interaction assay. (a) NanoBRET target engagement (TE) assay: when the fusion proteins LgBiT-RAS and SmBiT(q)-RAS interact in live-cells, they form an active luciferase as a BRET donor. The BRET receptor is a fluorescent NanoBRET® tracer that binds specifically to K-RAS. K-RAS binders displace the tracer and reduce the BRET signal in a dose-dependent manner.
The NanoBRET® TE Intracellular RAS Assay uses NanoBiT® Technology, a structural complementation system comprised of a large luciferase subunit (LgBiT) and a small complementary peptide (SmBiT(q)). Specifically, a fusion protein of LgBiT and full-length RAS is co-expressed with a fusion protein of SmBiT(q) and full-length RAS in cells. When the RAS proteins interact and form multimers, the LgBiT and SmBiT(q) subunits come together to form an active luciferase enzyme that serves as the BRET donor. The energy acceptor is a cell-permeable fluorescent NanoBRET® tracer that binds specifically to RAS. […] After mixing the plate for 1 min and incubation at room temperature for 15 min 1 μL of NanoBRET TE RAS Tracer 01 (final concentration 1 μM) was added followed by another mixing step. After 2 h incubation (37 °C, 5% CO2) and 15 min at room temperature 5 μL of NanoBRET™ Nano-Glo® substrate was added followed by a mixing step.

[4] = K-RAS4B form mostly not given, inactive = IC50 > 100 μM (Fig. 3 legend)

| IC50 (K-RAS4B^G12D [1]) [µM] | IC50 (K-RAS4B wild-type) [µM] | IC50 (K-RAS4B G12V) [µM] | solubility (Solubility) [µM] | SMILES | inhibition of GDP/GTP exchange (in words) (K-RAS4B^G12D [1]; [4]) | other results |
| --- | --- | --- | --- | --- | --- | --- |
| 13.8 ± 4.2 |  |  |  | COC(=O)[C@]12CC[C@@H](C(C)C(=O)O)[C@@H]1[C@H]1CC[C@@H]3[C@@]4(C)CC[C@H](OC(C)=O)C(C)(C)[C@@H]4CC[C@@]3(C)[C@]1(C)CC2 (some centres unmarked) [Compound 27] |  |  |
| > 300 |  |  |  | C[C@H]1[C@H](C)CC[C@]2(C(=O)O)CC[C@]3(C)C(=CC[C@@H]4[C@@]5(C)CC[C@H](O)C(C)(C)[C@@H]5CC[C@]43C)[C@H]12 [Compound 4, Ursolic acid] |  |  |
| 2.64 ± 1.75 | 3.46 ± 1.94 | 2.52 ± 0.99 | 424 (≈ 272 µg/mL) | C[C@H]1[C@H](C)CC[C@]2(C(=O)O)CC[C@]3(C)C(=CC[C@@H]4[C@@]5(C)CC[C@H](OC(=O)c6c(F)ccc(F)c6C(=O)O)C(C)(C)[C@@H]5CC[C@]43C)[C@H]12 [Compound 36] |  | Kd [2]: > 50 µM; Kd (K-RAS4B^G12D [3]): > 50 µM |
| 55.6 ± 6.5 | 53.6 ± 7.3 |  | 383 (≈ 255 µg/mL) | COc1cc(C(=O)O)c(C(=O)O[C@H]2CC[C@]3(C)[C@H]4CC=C5[C@@H]6[C@@H](C)[C@H](C)CC[C@]6(C(=O)O)CC[C@@]5(C)[C@]4(C)CC[C@H]3C2(C)C)cc1OC [Compound 38] |  |  |
| > 300 |  |  |  | C=C(C)[C@@H]1CC[C@]2(C(=O)O)CC[C@]3(C)[C@H](CC[C@@H]4[C@@]5(C)CC[C@H](O)C(C)(C)[C@@H]5CC[C@]43C)[C@@H]12 [Compound 2, betulinic acid] |  |  |
| 13.7 ± 5.1 | 13.4 ± 2.1 | 10.9 ± 0.6 | 114 (≈ 58.9 µg/mL) | Cn1cnc(Cn2ccc3ccc(CNCc4[nH]c5ccccc5c4C4NC(=O)c5ccc(O)cc54)cc32)c1 (centres unmarked) [Compound 54, BI2852, reference compound] |  |  |
| 2.88 ± 0.89 | 1.33 ± 0.24 | 2.51 ± 0.24 | 424 (≈ 272 µg/mL) | CC1(C)CC[C@]2(C(=O)O)CC[C@]3(C)C(=CC[C@@H]4[C@@]5(C)CC[C@H](OC(=O)c6c(F)ccc(F)c6C(=O)O)C(C)(C)[C@@H]5CC[C@]43C)[C@@H]2C1 [Compound 44] |  |  |
| 3.06 ± 0.79 | 1.52 ± 0.5 | 5.62 ± 0.93 | 390 (≈ 238 µg/mL) | CC1(C)CC[C@]2(C(=O)O)CC[C@]3(C)C(=CC[C@@H]4[C@@]5(C)CC[C@H](OC(=O)c6sccc6C(=O)O)C(C)(C)[C@@H]5CC[C@]43C)[C@@H]2C1 [Compound 45] |  |  |
| 2.22 ± 0.29 | 1.5 ± 0.08 | 2.71 ± 0.39 | 394 (≈ 252 µg/mL) | CC1(C)CC[C@]2(C(=O)O)CC[C@]3(C)C(=CC[C@@H]4[C@@]5(C)CC[C@H](OC(=O)c6cc(F)c(F)cc6C(=O)O)C(C)(C)[C@@H]5CC[C@]43C)[C@@H]2C1 [Compound 43] |  |  |
| 7.61 ± 0.7 | 4.68 | 5.47 |  | CC1(C)CC[C@]2(C(=O)NO)CC[C@]3(C)C(=CC[C@@H]4[C@@]5(C)CC[C@H](OC(=O)c6cc(F)c(F)cc6C(=O)O)C(C)(C)[C@@H]5CC[C@]43C)[C@@H]2C1 [Compound 41] |  |  |

Second part, the molecule before the results:

| SMILES | IC50 (K-RAS4B^G12D [1]) [µM] | IC50 (K-RAS4B wild-type) [µM] | IC50 (K-RAS4B G12V) [µM] | solubility (Solubility) [µM] | inhibition of GDP/GTP exchange (in words) (K-RAS4B^G12D [1]; [4]) | other results |
| --- | --- | --- | --- | --- | --- | --- |
| C=C(C)[C@@H]1CC[C@]2(COC(=O)CCC(=O)O)CC[C@]3(C)[C@H](CC[C@@H]4[C@@]5(C)CC[C@H](O)C(C)(C)[C@@H]5CC[C@]43C)[C@@H]12 [Compound 31] | 10.4 ± 0.8 | 25.6 ± 4.3 | 12.7 ± 5.5 |  |  |  |
| C=C(C)[C@@H]1CC[C@]2(C(=O)O)CC[C@]3(C)[C@H](CC[C@@H]4[C@@]5(C)CC[C@H](OC(=O)c6cc7ccccc7cc6C(=O)O)C(C)(C)[C@@H]5CC[C@]43C)[C@@H]12 [Compound 22] |  |  |  |  |  | inhibition of GDP/GTP exchange (in words) (K-RAS4B^G12D [1]): loss of GDP/GTP exchange inhibition |
| C=C(C)[C@@H]1CC[C@]2(C(=O)O)CC[C@]3(C)[C@H](CC[C@@H]4[C@@]5(C)CC[C@H](OC(=O)c6ccccc6)C(C)(C)[C@@H]5CC[C@]43C)[C@@H]12 [Compound 9] |  |  |  |  | inactive |  |
| C=C(C)[C@@H]1CC[C@]2(C(=O)NCC(=O)OCC)CC[C@]3(C)[C@H](CC[C@@H]4[C@@]5(C)CC[C@H](O)C(C)(C)[C@@H]5CC[C@]43C)[C@@H]12 [Compound 21] |  |  |  |  |  | inhibition of GDP/GTP exchange (in words) (K-RAS4B^G12D [1]): inactive |
| CC(C=O)[C@@H]1CC[C@]2(C(=O)O)CC[C@]3(C)[C@H](CC[C@@H]4[C@@]5(C)CC[C@H](OC(=O)c6ccccc6C(=O)O)C(C)(C)[C@@H]5CC[C@]43C)[C@@H]12 (some centres unmarked) [Compound 14] | 48.5 ± 12.7 | 37.3 ± 19.1 | 51.1 ± 6.2 | 447 (≈ 278 µg/mL) |  | solubility (in words) (Solubility): well soluble |
| CC1(C)CCC23CCC4(C)C5(C)CCC6C(C)(C)C(OC(=O)c7cc(F)c(F)cc7C(=O)O)CCC6(C)C5CC(O)C4(OC2=O)C3C1 (centres unmarked) [Compound 51] | 26.5 ± 5.9 | 7.18 ± 0.68 | 8.57 ± 1.09 | 99 (≈ 65 µg/mL) |  |  |
| COC(=O)c1ccccc1C(=O)O[C@H]1CC[C@]2(C)[C@H]3CC=C4[C@@H]5CC(C)(C)CC[C@]5(C(=O)O)CC[C@@]4(C)[C@]3(C)CC[C@H]2C1(C)C [Compound 48] |  |  |  |  | completely inactive |  |
| C=C(C)[C@@H]1CC[C@]2(CN)CC[C@]3(C)[C@H](CC[C@@H]4[C@@]5(C)CC[C@H](O)C(C)(C)[C@@H]5CC[C@]43C)[C@@H]12 [Compound 35] |  |  |  |  |  | inhibition of GDP/GTP exchange (in words) (K-RAS4B^G12D [1]): inactive |
| C=C(C)[C@@H]1CC[C@]2(C(=O)NCC(=O)O)CC[C@]3(C)[C@H](CC[C@@H]4[C@@]5(C)CC[C@H](O)C(C)(C)[C@@H]5CC[C@]43C)[C@@H]12 [Compound 12] |  |  |  |  | inactive |  |
| CC1(C)CC[C@]2(C(=O)NCCN)CC[C@]3(C)C(=CC[C@@H]4[C@@]5(C)CC[C@H](O)C(C)(C)[C@@H]5CC[C@]43C)[C@@H]2C1 [Compound 40] |  |  |  |  | inactive |  |
| CC1(C)CC[C@]2(C(=O)Nc3nnn[nH]3)CC[C@]3(C)C(=CC[C@@H]4[C@@]5(C)CC[C@H](O)C(C)(C)[C@@H]5CC[C@]43C)[C@@H]2C1 [Compound 39] | 27.8 ± 2.6 | 12.8 ± 2.9 | 9.18 ± 0.99 |  |  |  |
| C=C(C)[C@@H]1CC[C@]2(C(=O)NCCN)CC[C@]3(C)[C@H](CC[C@@H]4[C@@]5(C)CC[C@H](O)C(C)(C)[C@@H]5CC[C@]43C)[C@@H]12 [Compound 17] |  |  |  |  | inactive |  |
| C=C(C)[C@@H]1CC[C@]2(C(=O)On3nnc4cccnc43)CC[C@]3(C)[C@H](CC[C@@H]4[C@@]5(C)CC[C@H](O)C(C)(C)[C@@H]5CC[C@]43C)[C@@H]12 [Compound 13] |  |  |  |  | inactive |  |
| C=C(C)[C@@H]1CC[C@]2(C(=O)O)CC[C@]3(C)[C@H](CC[C@@H]4[C@@]5(C)CC[C@H](OC(C)=O)C(C)(C)[C@@H]5CC[C@]43C)[C@@H]12 [Compound 8] |  |  |  |  | inactive |  |
| C=C(C)[C@@H]1CC[C@]2(C(=O)OC)CC[C@]3(C)[C@H](CC[C@@H]4[C@@]5(C)CC[C@H](O)C(C)(C)[C@@H]5CC[C@]43C)[C@@H]12 [Compound 10] |  |  |  |  | inactive |  |
| CC1(C)CC[C@]2(C(=O)O)CC[C@]3(C)C(=CC[C@@H]4[C@@]5(C)CC[C@H](OC(=O)c6cc(F)c(F)cc6C(=O)NO)C(C)(C)[C@@H]5CC[C@]43C)[C@@H]2C1 [Compound 42, oleanoyl 4,5-difluoro-2-(hydroxycarbamoyl)benzo-ate] |  |  |  |  | completely inactive |  |
| C#Cc1c(F)ccc2cc(O)cc(-c3ncc4c(N5CC6CCC(C5)N6)nc(OC[C@@]56CCCN5C[C@H](F)C6)nc4c3F)c12 [Compound 53, MRTX1133, reference compound] |  |  |  | 322 (≈ 193 µg/mL) |  |  |
| CC1(C)CCC23CCC4(C)C5(C)CCC6C(C)(C)C(OC(=O)c7c(F)ccc(F)c7C(=O)O)CCC6(C)C5CC(O)C4(OC2=O)C3C1 (centres unmarked) [Compound 52] | 27.1 ± 4.2 | 10.6 ± 2.9 | 8.7 ± 0.59 | 320 (≈ 210 µg/mL) |  |  |
| CC1(C)CC[C@]2(C(=O)O)CC[C@]3(C)C(=CC[C@@H]4[C@@]5(C)CC[C@H](OC(=O)c6ccsc6C(=O)O)C(C)(C)[C@@H]5CC[C@]43C)[C@@H]2C1 [Compound 46] | 3.67 ± 0.35 | 4.15 ± 1.32 | 8.12 ± 1.24 | 421 (≈ 257 µg/mL) |  |  |
| C=C(C)[C@@H]1CC[C@]2(C(=O)O)CC[C@]3(C)[C@H](CC[C@@H]4[C@@]5(C)CCC(=O)C(C)(C)[C@@H]5CC[C@]43C)[C@@H]12 [Compound 20, betulonic acid] |  |  |  |  | inactive |  |
